Source: patent US10292991B2, “Small molecule therapeutic compounds that reduce the incidence of intracerebral hemorrhage and brain microhemorrhages” (St. Michaels Hospital, priority 2016, dated 2019)
Where a name gives a salt, the structure may show the parent alone. Read-outs that look alike come from different tables or passages of the source.

Tests used:
zebrafish larvae [1] = experiment: Morpholino injection to induce hemorrhage in zebrafish larvae; assay type: in vivo; settings: at optimum injected amount; 3 dpf larvae; n = 150-250 per condition
Protocol: (§1) Morpholino oligonucleotides (MOs) were custom-synthesized by Gene Tools (Carvalis, Oreg.); their sequences are shown in Table 1.
(§2) Danieau buffer (58 mM NaCl, 0.7 mM KCl, 0.4 mM MgSO4, 0.6 mM Ca(NO3)2, 5.0 mM HEPES, pH 7.6) was used to dilute the MO solutions to 0.2 mM final concentration. Individual wells were placed on a 1.0% agarose plate, in which the embryos were positioned. Afterwards, the MO solution was injected through the cell yolk into embryos of 1 to 4 cell-stage. The injected quantities varied from 0.5 to 15 ng.
(§3) bbhm292 zebrafish mutant has a hypomorphic mutation in βPix, resulting in ICH/BMH and hydrocephalus. The MO is βPixexon6-MO which blocks splicing of exon 6 and results in premature protein termination. […] Higher doses of βPixexon6-MO (up to 8 ng) result in a lack of blood circulation, and therefore no ICH/BMH was detected. Injection of 8 ng results in complete missplicing of βPix and therefore a null phenotype, whereas lower doses retain some normally spliced βPix. The βPixexon6-MO sequence is 5′-[…]-3′ [SEQ ID NO: 1]. 3Pixexon6-MO was injected into the embryos at the 1-2 cell stage, and compounds were added 12 hpf.
Another MO was designed to block the splice-donor sites after exon 8 in pak2a. Pak2a is the gene mutated in the rhdmi149 zebrafish mutant that develops ICH/BMH. The pak2a-MO sequence is 5′-[…]-3′ (SEQ ID NO: 2). Eight pg of pak2a-MO was injected per embryo, resulting in […] of embryos with ICH/BMH with low mortality (FIGS. 12 and 14).
Next, optimum amount of each morpholino was determined. The goal was to induce an acceptable percentage of hemorrhage (ideally between 40-80%), without having toxicity from morpholino injection.

CCM3 (Ccm3) mRNA = experiment: qRT-PCR of CCM3 mRNA in atorvastatin-treated zebrafish larvae; assay type: in vivo, zebrafish (Danio rerio); settings: 1 μmol/L atorvastatin alone
Protocol: qRT-PCR was used to assess relative expression of selected genes (an average of two biological trial and three technical replicates and each trial is a pool of 60 larvae/treatment), using β-actin as the housekeeping gene control. 3 dpf, Tg(Flk:GFP; Gata:dsRed) zebrafish larvae were used for RNA extraction and cDNA synthesis. Atorvastatin and drug treatment were performed as previously mentioned in drug screening. Total RNA was extracted from these larvae (a pool of 50-60 larvae/treatment) using the RNeasy extraction kit (Qiagen, Mississauga, ON, CAN) and treated with DNase. The concentration of total RNA was determined spectrophotometrically at 260/280 nm using a NanoDrop™ spectrophotometer. First-strand cDNA was synthesized from 1 μg of total RNA using random hexamer primers.
In each case, forward primer is shown on the top and reverse primer on the bottom.
PCR was carried out in a 20 μl total volume and included 1×PCR buffer, 1.25 mM MgCl2, 0.25 mM dNTP, 1 U Taq polymerase, 0.5 μmol/L forward, and reverse primers and 1 μl cDNA.

mice treated with LPS = experiment: Atorvastatin plus LPS in mice: mortality and large hemorrhages; assay type: in vivo; settings: for mortality: n=5
Text: While the present invention has been described with reference to the specific embodiments thereof it should be understood by those skilled in the art that various changes may be made and equivalents may be substituted without departing from the true spirit and scope of the invention. In addition, many modifications may be made to adopt a particular situation, material, composition of matter, process, process step or steps, to the objective spirit and scope of the present invention. All such modifications are intended to be within the scope of the claims appended hereto.

[2] = tested on: brain hemorrhage induced by 1 μM atorvastatin in zebrafish; experiment: Atorvastatin-induced brain hemorrhage (ICH) model in zebrafish, rescue by drugs; settings: for Efficacy on atorvastatin Hemorrhage: ATV model induced by 1 μmol/L atorvastatin, inhibition of hemorrhage; for EC50: Danio rerio
Protocol: Zebrafish were set up the night before the experiment day. In the morning of the experimental day, we put breeders together for mating and fertilization. 6 hours post-fertilization (hpf), statins was added into a 96-well plate holding 100 μl water with 7 to 8 fish eggs in each well, which was optimized through a serial pilot experiments. Statins were dissolved in DMSO and diluted with 0.5% of DMSO water into a working solution. 100 μl water containing 0.5% of DMSO was the medium for all wells in the final assessment.
For screening NIH compound libraries, 5 μM of each of the drugs from the library was added at 24 hpf into wells containing fish eggs treated with 1 μM ATV since 6 hpf. Hemorrhage positive control wells were treated with ATV but not treated with any drugs. Negative controls were not treated with any chemicals (fish with 0.5% of DMSO water). Geranylgeranyl pyrophosphate (GGPP, 4 mg/L) was used as positive rescue control.
Brain hemorrhage was assessed 72 hpf (66 hours after addition of statins) using stereomicroscopy by two observers. Percentage of brain hemorrhage was used as final readout. Compounds showing more than 70% of rescue of the brain hemorrhages in the initial test were re-tested to generate a final list of hits from the library.
All subsequent EC50 assays of positive compounds were performed with protocols established and optimized during the screening.

[3] = tested on: bbh mutant zebrafish (mutation in βPix), spontaneous ICH; experiment: bbh (bubblehead) mutant genetic model of brain hemorrhage; assay type: in vivo, zebrafish (Danio rerio); settings: Danio rerio, read-out: EC50 to rescue brain hemorrhage, bbh Mutant Model
Text: A specific zebrafish line with a gene mutation called bubblehead (bbh) was used. This line has spontaneous ICH. Bubblehead phenotype is caused by a mutation in βPix. Adult homozygous zebrafish were viable and fertile. […] More than 85% of zebrafish larvae display an ICH phenotype.

[4] = tested on: β-Pix MO-induced hemorrhage in zebrafish; experiment: βPix morpholino-induced hemorrhage in zebrafish, rescue by drugs; assay type: in vivo, zebrafish (Danio rerio); settings: inhibition of β-Pix MO-induced hemorrhage
Protocol: as §1, §2, §3
The first three morpholino pairs were good for the efficacy study. Efficacy assays were performed using Artemether (ARM, Sigma) and artemesunate (ART, GMP). […] Treating these morphants with the drugs rescued the ICH phenotype.

zebrafish larvae [5] = experiment: Toxicity assay in zebrafish larvae (heart beat, blood flow, cardiac edema); assay type: in vivo, zebrafish (Danio rerio)
Protocol: The embryos were collected and distributed into a 96-well plate in 0.5% DMSO, similar to efficacy assays. […] Heart beat and blood flow were ranked from 3 (normal heart beat or blood flow) to 0 (no heart beat or blood flow). Cardiac edema was ranked from 0 (normal heart without edema) to −3 (severe cardiac edema). […] The ratio of TC50/EC50 was calculated in each case.
Heart beat and blood flow were ranked from 3 (normal heart beat or blood flow) to 0 (no heart beat or blood flow). Cardiac edema was ranked from 0 (normal heart without edema) to −3 (severe cardiac edema). […] Data is expressed as mean±SEM from 3 experiments.

[6] = drug from Sequoia Research (UK)
[7] = drug from Sigma, 3 dpf larvae, drug added 24 hpf

Rap1b - exon3: morpholino 5′-AAATGATGCAGAACTTGCCTTTCTG-3′ (all phosphorodiamidate morpholino (PMO))
Hemorrhage (zebrafish larvae [1]): 30.8% (Faint)

CC(C)c1c(C(=O)Nc2ccccc2)c(-c2ccccc2)c(-c2ccc(F)cc2)n1CC[C@@H](O)C[C@@H](O)CC(=O)O [Atorvastatin, atorvastatin calcium salt]
CCM3 transcription level (qRT-PCR) after inducing hemorrhage (CCM3 (Ccm3) mRNA): decrease
mortality (mice treated with LPS; atorvastatin 50 mg/kg in addition to LPS 5 mg/kg, 24 hours after treatments): 100%
Number of large hemorrhages caused by LPS (mice treated with LPS; mouse, in vivo): significantly increased
mortality (mice treated with LPS; statin alone, 24 hours): did not cause any mortality

C#C[C@]1(O)CC[C@H]2[C@@H]3CCc4cc(O)ccc4[C@H]3CC[C@@]21C [Ethynylestradiol]
Efficacy on atorvastatin Hemorrhage [2]: +++ (One + sign represents 20% inhibition on 1 μmol/L ATV or β-Pix MO-induced hemorrhage.)

C[C@@H]1CC[C@H]2[C@@H](C)C(=O)O[C@@H]3O[C@]4(C)CC[C@@H]1[C@]32OO4 [Artemisinin]
Efficacy on atorvastatin Hemorrhage [2]: +++++ (One + sign represents 20% inhibition on 1 μmol/L ATV or β-Pix MO-induced hemorrhage.)
EC50 ([2]; read-out: EC50 (in nmol/L) on atorfvastatin model (μmol/L)): 95 nmol/L
EC50 ([2]; read-out: EC50 to rescue brain hemorrhage, Statin Model): 81.3 nmol/L
Result in the ATV zebrafish model ([2]; derivatives acquired from Sequoia Research Products): tested positive
EC50 [3]: 177 nM
Efficacy on β-Pix MO Hemorrhage [4]: +++++ (One + sign represents 20% inhibition on 1 μmol/L ATV or β-Pix MO-induced hemorrhage.)
TC50 (Blood flow) (zebrafish larvae [5]; [6]): 5340 nM
TC50 (Edema) (zebrafish larvae [5]; [6]): 6347 nM
TC50/EC50 ratio (Blood flow) (zebrafish larvae [5]; [6]): (20.4)
TC50/EC50 ratio (Edema) (zebrafish larvae [5]; [6]): 24.2)
TC50/EC50 ratio (Heart beat) (zebrafish larvae [5]; [6]): 4.6e+007)
TC50/EC50 ratio (Blood flow) (zebrafish larvae [5]; drug from Sigma): (13)
TC50/EC50 ratio (Edema) (zebrafish larvae [5]; drug from Sigma): (419)
TC50/EC50 ratio (Heart beat) (zebrafish larvae [5]; drug from Sigma): (104.5)
TC50 (Blood flow) (zebrafish larvae [5]; [7]): 1058 nM
TC50 (Edema) (zebrafish larvae [5]; [7]): 34134 nM
TC50 (Heart beat) (zebrafish larvae [5]; [7]): 8501 nM

Benidipine
Efficacy on atorvastatin Hemorrhage [2]: ++++ (One + sign represents 20% inhibition on 1 μmol/L ATV or β-Pix MO-induced hemorrhage.)
Efficacy on β-Pix MO Hemorrhage [4]: ++++ (One + sign represents 20% inhibition on 1 μmol/L ATV or β-Pix MO-induced hemorrhage.)

CC(C)[C@]12O[C@H]1[C@@H]1O[C@]13[C@]1(O[C@H]1C[C@@]1(C)C4=C(CC[C@]31C)C(=O)OC4)[C@H]2O [Tripolide]
Efficacy on atorvastatin Hemorrhage [2]: ++++ (One + sign represents 20% inhibition on 1 μmol/L ATV or β-Pix MO-induced hemorrhage.)
Efficacy on β-Pix MO Hemorrhage [4]: No effect

CCOC(=O)C1=C(C)NC(C)=C(C(=O)OCC)C1c1ccccc1/C=C/C(=O)OC(C)(C)C [Lacidipine]
Efficacy on atorvastatin Hemorrhage [2]: ++++ (One + sign represents 20% inhibition on 1 μmol/L ATV or β-Pix MO-induced hemorrhage.)
